Assay results as given in patent US8039458B2, “HIV integrase inhibitors” (priority 2005, dated 2011).

Assays:
[1] = test system: recombinant NL-Rluc virus; assay: Inhibition of HIV replication (NL-RLuc virus, Renilla luciferase); type: cell-based; details: Human immunodeficiency virus 1, read-out: antiviral actitively
[2] = molecular target: T1, HIV-Integrase (Human immunodeficiency virus type 1 group M subtype B, UniProt P12497); assay: HIV-Integrase binding assay (competition with [3H]-compound I, SPA); details: competitive binding vs [3H]-compound I to purified integrase; Ki by Cheng and Prusoff; read-out: in vitro binding
T1 construct: Recombinant integrase (0.26 ng) was incubated with the beads
Procedure: HIV-Integrase Inhibition Activity. To evaluate in-vitro activity against HIV-integrase, 5 pmole of biotin labeled substrate DNA was bound to 100 μg of Streptavidin coated PVT SPA beads (Amersham Pharmacia Biotech). Recombinant integrase (0.26 ng) was incubated with the beads for 90 min at 37° C. Unbound enzyme was removed by washing the complex followed by addition of inhibitors and 0.1 fmol of P33 labeled target DNA. The reaction was stopped by adding EDTA to a final concentration of 10 mM. Samples were counted in TopCountNXT (Packard) and the CPM was used as a measure of integration. The reaction condition was as described in A. Engelman and R. Craigie, J. Virol. 69, 5908-5911 (1995). The sequences of substrate and target DNA were described in Nucleic Acid Research 22,1121-1122 (1994).
HIV-Integrase binding assay. In this assay competitive binding experiments with test compounds and a radiolabeled integrase inhibitor (compound I) are performed against purified integrase. SPA bead/DNA/enzyme complexes were prepared as for the integrase inhibition assay except, to each well, 0.69 μl of integrase enzyme ([…]) was used per 2 μl of LTR DNA-attached scintillation proximity beads (stock 50 mg/ml). Binding reactions were carried out in 96-well white polystyrene assay plates (Corning, #3600). The following was added sequentially to each well: 20 μl of water or 20 μl of human serum (Cellgro Cat# 35-060-CL), 5 μl of serially diluted compound (in 50% DMSO/50% integrase SPA buffer), 5 μl of [^3H]-compound I (6,000 cpm/μl in SPA buffer) and 20 μl of bead/DNA/enzyme complex. The plates were shaken for 2 hours and then allowed to sit at room temperature without shaking overnight. The [^3H]-compound I binding was measured using a Topcount scintillation counter. Cheng and Prusoff equations were used to convert the inhibition of compound 1 binding into the corresponding Ki value. Activity equal to A refers to a compound having Ki=0.001 to 0.003 μM while B and C denote compounds having Ki=0.003 to 0.05 μM and Ki≧0.050 μM respectively.

Structure (SMILES)	EC50 [1]	Ki [2]
Cn1nnc(-c2cc(F)ccc2CNC(=O)c2nc3n(c(=O)c2O)CCOCC32CCCC2)n1 [Example 15, N-((4-fluoro-2-(2-methyl-2H-tetrazol-5-yl)phenyl)methyl)-3′-hydroxy-4′-oxo-6′,7′-dihydro-4′H-spiro[cyclopentane-1,10′-pyrimido[1,2-d][1,4]oxazepine]-2′-carboxamide]	1 to 10 nM	1 to 3 nM
O=C(NCc1ccc(F)cc1)c1nc2n(c(=O)c1O)CCOCC21CCC1 [Example 7, N-((4-fluorophenyl)methyl)-3′-hydroxy-4′-oxo-6′,7′-dihydro-4′H-spiro[cyclobutane-1,10′-pyrimido[1,2-d][1,4]oxazepine]-2′-carboxamide]	10 to 50 nM	1 to 3 nM
O=C(NCc1ccc(F)cc1)c1nc2n(c(=O)c1O)CCOCC21CCCC1 [Example 12, N-((4-fluorophenyl)methyl)-3′-hydroxy-4′-oxo-6′,7′-dihydro-4′H-spiro[cyclopentane-1,10′-pyrimido[1,2-d][1,4]oxazepine]-2′-carboxamide]	1 to 10 nM	1 to 3 nM
Cc1nc(-c2cc(F)ccc2CNC(=O)c2nc3n(c(=O)c2O)CCOCC32CCOCC2)n(C)n1 [Example 41, N-((2-(1,3-dimethyl-1H-1,2,4-triazol-5-yl)-4-fluorophenyl)methyl)-3′-hydroxy-4′-oxo-2,3,5,6,6′,7′-hexahydro-4′H-spiro[pyran-4,10′-pyrimido[1,2-d][1,4]oxazepine]-2′-carboxamide]	10 to 50 nM	3 to 50 nM
CC1(C)COCCn2c1nc(C(=O)NCc1ccc(F)cc1-n1cncn1)c(O)c2=O [Example 2, N-((4-Fluoro-2-(1H-1,2,4-triazol-1-yl)phenyl)methyl)-3-hydroxy-10,10-dimethyl-4-oxo-6,7,9,10-tetrahydro-4H-pyrimido[1,2-d][1,4]oxazepine-2-carboxamide]	1 to 10 nM	3 to 50 nM
O=C(NCc1ccc(F)cc1-n1cncn1)c1nc2n(c(=O)c1O)CCOCC21CCOCC1 [Example 34, N-((4-fluoro-2-(1H-1,2,4-triazol-1-yl)phenyl)methyl)-3′-hydroxy-4′-oxo-2,3,5,6,6′,7′-hexahydro-4′H-spiro[pyran-4,10′-pyrimido[1,2-d][1,4]oxazepine]-2′-carboxamide]	1 to 10 nM	1 to 3 nM
O=C(NCc1ccc(F)cc1)c1nc2n(c(=O)c1O)CCOCC21CCOCC1 [Example 32, N-((4-fluorophenyl)methyl)-3′-hydroxy-4′-oxo-2,3,5,6,6′,7′-hexahydro-4′H-spiro[pyran-4,10′-pyrimido[1,2-d][1,4]oxazepine]-2′-carboxamide]	10 to 50 nM	3 to 50 nM
Cn1cnn(-c2cc(F)ccc2CNC(=O)c2nc3n(c(=O)c2O)CCOCC32CCOCC2)c1=O [Example 27, N-(4-Fluoro-2-(4-methyl-5-oxo-4,5-dihydro-1H-1,2,4-triazol-1-yl)benzyl)-3′-hydroxy-4′-oxo-2,3,4′,5,6,6′,7′,9′-octahydrospiro[pyran-4,10′-pyrimido[1,2-d][1,4]oxazepine]-2′-carboxamide]	1 to 10 nM	3 to 50 nM
CN1CCN(c2cc(F)ccc2CNC(=O)c2nc3n(c(=O)c2O)CCOCC32CCOCC2)C1=O [Example 38, N-((4-fluoro-2-(3-methyl-2-oxo-1-imidazolidinyl)phenyl)methyl)-3′-hydroxy-4′-oxo-2,3,5,6,6′,7′-hexahydro-4′H-spiro[pyran-4,10′-pyrimido[1,2-d][1,4]oxazepine]-2′-carboxamide]	1 to 10 nM	3 to 50 nM
CS(=O)(=O)c1cc(F)ccc1CNC(=O)c1nc2n(c(=O)c1O)CCOCC21CCC1 [Example 8, N-((4-fluoro-2-(methylsulfonyl)phenyl)methyl)-3′-hydroxy-4′-oxo-6′,7′-dihydro-4′H-spiro[cyclobutane-1,10′-pyrimido[1,2-d][1,4]oxazepine]-2′-carboxamide]	1 to 10 nM	1 to 3 nM
Cc1ncn(-c2cc(F)ccc2CNC(=O)c2nc3n(c(=O)c2O)CCOCC32CCCC2)n1 [Example 21, N-((4-fluoro-2-(3-methyl-1H-1,2,4-triazol-1-yl)phenyl)methyl)-3′-hydroxy-4′-oxo-6′,7′-dihydro-4′H-spiro[cyclopentane-1,10′-pyrimido[1,2-d][1,4]oxazepine]-2′-carboxamide]	1 to 10 nM	1 to 3 nM
O=C(NCc1ccc(F)cc1-n1ncnc1CF)c1nc2n(c(=O)c1O)CCOCC21CCOCC1 [Example 39, N-((4-fluoro-2-(5-(fluoromethyl)-1H-1,2,4-triazol-1-yl)phenyl)methyl)-3′-hydroxy-4′-oxo-2,3,5,6,6′,7′-hexahydro-4′H-spiro[pyran-4,10′-pyrimido[1,2-d][1,4]oxazepine]-2′-carboxamide]	1 to 10 nM	3 to 50 nM
Cn1ncnc1-c1cc(F)ccc1CNC(=O)c1nc2n(c(=O)c1O)CCOCC21CCOCC1 [Example 40, N-((4-fluoro-2-(1-methyl-1H-1,2,4-triazol-5-yl)phenyl)methyl)-3′-hydroxy-4′-oxo-2,3,5,6,6′,7′-hexahydro-4′H-spiro[pyran-4,10′-pyrimido[1,2-d][1,4]oxazepine]-2′-carboxamide]	1 to 10 nM	3 to 50 nM
Cc1ncnn1-c1cc(F)ccc1CNC(=O)c1nc2n(c(=O)c1O)CCOCC2(C)C [Example 4, N-((4-Fluoro-2-(5-methyl-1H-1,2,4-triazol-1-yl)phenyl)methyl)-3-hydroxy-10,10-dimethyl-4-oxo-6,7,9,10-tetrahydro-4H-pyrimido[1,2-d][1,4]oxazepine-2-carboxamide]	1 to 10 nM	3 to 50 nM
Cc1ncnn1-c1cc(F)ccc1CNC(=O)c1nc2n(c(=O)c1O)CCOCC21CCOCC1 [Example 36, N-((4-fluoro-2-(5-methyl-1H-1,2,4-triazol-1-yl)phenyl)methyl)-3′-hydroxy-4′-oxo-2,3,5,6,6′,7′-hexahydro-4′H-spiro[pyran-4,10′-pyrimido[1,2-d][1,4]oxazepine]-2′-carboxamide]	1 to 10 nM	3 to 50 nM
Cc1nc(C)n(-c2cc(F)ccc2CNC(=O)c2nc3n(c(=O)c2O)CCOCC3(C)C)n1 [Example 5, N-((2-(3,5-dimethyl-1H-1,2,4-triazol-1-yl)-4-fluorophenyl)methyl)-3-hydroxy-10,10-dimethyl-4-oxo-6,7,9,10-tetrahydro-4H-pyrimido[1,2-d][1,4]oxazepine-2-carboxamide]	10 to 50 nM	3 to 50 nM
Cc1nc(C)n(-c2cc(F)ccc2CNC(=O)c2nc3n(c(=O)c2O)CCOCC32CCC2)n1 [Example 11, N-((2-(3,5-dimethyl-1H-1,2,4-triazol-1-yl)-4-fluorophenyl)methyl)-3′-hydroxy-4′-oxo-6′,7′-dihydro-4′H-spiro[cyclobutane-1,10′-pyrimido[1,2-d][1,4]oxazepine]-2′-carboxamide]	1 to 10 nM	3 to 50 nM
CNC(=O)c1cc(F)ccc1CNC(=O)c1nc2n(c(=O)c1O)CCOCC21CCOCC1 [Example 33, N-((4-fluoro-2-((methylamino)carbonyl)phenyl)methyl)-3′-hydroxy-4′-oxo-2,3,5,6,6′,7′-hexahydro-4′H-spiro[pyran-4,10′-pyrimido[1,2-d][1,4]oxazepine]-2′-carboxamide]	1 to 10 nM	3 to 50 nM
